Series [1] in a line: Pharmacokinetic study in rats after oral administration of QSG. Particulars: for AUC(0-inf): AUC0→∞.
Procedure: (§2) Ion source parameters were set as follows: temperatures of drying gas and sheath gas were 300 °C and 300 °C, flow rates of drying gas and sheath gas were 7 L/min and 11 L/min, the nebulizer was set at 35 psig, capillary voltage was 3500 V (−), and nozzle voltage was 2000 V (−). […] Chromatographic separations were conducted on a ZORBAX Eclipse Plus C18 column (3.0 × 50 mm, 1.8 μm, Agilent Technologies, California, USA). The mobile phase was composed of 0.1% aqueous FA (A, (v/v)) and 0.1% formic acid methanol (B), the flow rate was set at 0.5 mL/min, and the column oven was maintained at 40 °C.
(§3) Protein precipitation was carried out for each time point for plasma samples, calibration samples, or QC samples by introducing four volumes of acetonitrile containing 400 ng/mL of icariin. Then, 10 μL 10% aqueous ascorbic acid (v/v) was spiked into each sample to prevent the oxidation of phenolic compounds. […] An aliquot (450 μL) of the supernatant was transferred and dried under nitrogen vacuum.
(§4) The pharmacokinetic parameters were calculated by DAS software (version 2.0) for a non-compartmental analysis.
The test system of a further series is H9c2 cells. Briefly: Cytotoxicity on H9c2 cells (CCK-8). Format: cell-based, rat. Particulars: for inhibition at 25 µM / inhibition at 50 µM / inhibition at 100 µM: Rattus norvegicus, read-out: Inhibition rate; for inhibition at 25 µM / inhibition at 50 µM / inhibition at 100 µM / Inhibition rate: H9c2 cells, n=3. The method, then: (§1) Rat myocardial H9c2 cells (purchased from China Infrastructure of Cell Line Resources, Institute of Basic Medical Sciences, Chinese Academy of Medical Sciences) were cultured in DMEM supplemented with 10% fetal bovine serum (FBS), Penicillin (100 U/mL), and Streptomycin (100 μg/mL) at 37 °C under a humidified atmosphere of 5% CO2 and 95% air. For OGD/R treatment, H9c2 cells were cultured in glucose-free DMEM under hypoxic conditions (95%N2 + 5%CO2) for 4 h at 37 °C followed by complete medium under normal conditions with air (95%) and CO2 (5%) for 2 h. A control group was maintained under normal culture conditions (with glucose-containing DMEM and 5% CO2) without undergoing OGD/R treatment. CCK8 was used to assess cell viability. After treatment, H9c2 cells were seeded in 96-well plates, with each well supplemented with 10 μL of CCK-8 solution and then incubated for 1 h. Finally, the absorbance at 450 nm was detected by a microplate reader (Model […] 200 PRO, TECAN, Grodig, Austria).
When evaluating the cytotoxicities of the absorbed compounds, the H9c2 cells were seeded in 96-well plates at a density of 1 × 10^4 cells/well; when cells reached 80% confluence, […] Afterward, the protective effects were verified by assessing the cell viability when treating with different concentrations (1, 10, 25, 50, and 100 μM) of the analytes prior to OGD/R treatment.

A further series concerns OGD/R-induced H9c2 cells. Nature of the series: Protective effect on OGD/R-induced H9c2 cells (CCK-8 cell viability). Format: cell-based, rat. Particulars: for H9c2 cell survival after OGD/R (in words): 1, 10, 25, 50 and 100 μM prior to OGD/R, vs model group; for EC50: Rattus norvegicus, protective effect against OGD/R injury, H9c2 cell viability. The method, then:
as §1
When evaluating the cytotoxicities of the absorbed compounds, the H9c2 cells were seeded in 96-well plates at a density of 1 × 10^4 cells/well; when cells reached 80% confluence, they were treated with 25 and 50 μM of the 24 analytes to screen the non-toxic concentration ranges. Afterward, the protective effects were verified by assessing the cell viability when treating with different concentrations (1, 10, 25, 50, and 100 μM) of the analytes prior to OGD/R treatment.

A short description of series [2]: Concentrations of 24 analytes in QSG treated plasma (Table S5). The conditions noted are these: for concentration at 0.08 h / concentration at 0.17 h / concentration at 0.5 h / concentration at 1 h / concentration at 2 h / concentration at 4 h / concentration at 8 h / concentration at 12 h: Sprague Dawley, rat, plasma, oral, 7 g/kg; for Concentration: QSG treated plasma, n = 5.

The conditions of series [3]: rat, in vivo.
Procedure: as §2, §3, §4
[4] abbreviates: Sprague Dawley, rat, plasma, po, 7 g/kg.
Where [5] appears, read: Sprague Dawley, rat, plasma, po, 7 g/kg, rat plasma, single oral 7 g/kg QSG, n = 6.
Where [6] appears, read: rat plasma, single oral 7 g/kg QSG, n = 6.

The AUC is concentration integrated over time. Read a low AUC as less exposure. The AUC(0-t) is the area under the concentration-time curve up to a stated or last time point. High values mean more exposure, low ones less exposure. The term Cmax denotes the maximum level reached in the sampled fluid or tissue. One may read the MRT as the average time that molecules of a dose stay in the body. What is called Tmax is the time from dosing to the highest level. As usually defined, the half-life is how long it takes for the measured level to halve. Lower therefore signals rapid decline. For orientation: AUC(0-inf) means total exposure, with the tail of the curve extrapolated. The low end stands for less exposure, the high end for more exposure. As usually defined, the inhibition is the relative decrease from the control value, in per cent. The term EC50 denotes the midpoint of the concentration-response curve. Read a low EC50 as a more potent agent.

Where two headings read alike, the source gives them in different places.

Regarding `O=C(/C=C/c1ccc(O)cc1)c1ccc(O)cc1O` [Isoliquiritigenin], in series [1] (setting [4]), the area under the curve (AUC) turned out to be 4.89 ng·h/mL, the area under the curve AUC(0-t) is 3.17 ± 0.843 ng·h/mL, the Cmax stood at 1.65 ± 0.585 ng/mL and the MRT worked out at 7.68 ± 2.17 h. Also, in series [1] (setting [4]), the Tmax came out at 10.2 min and the half-life was 742 ± 631 min. Also, the AUC(0-inf) in series [1] (Sprague Dawley, rat, plasma, po, 7 g/kg, Table S12, rats, oral QSG) came to 4.89 ng·h/mL. For the same compound, the AUC(0-inf) in series [1] (setting [5]) is 4.89 ± 2.77 ng·h/mL. Also, the “Shape of the plasma concentration–time curve (in words)” value (“Shape” for short) in series [1] (rats, oral QSG) was “Double peaks”. Besides, the inhibition at 25 µM with H9c2 cells (25 μM) was -14.9 ± 9.3%. The inhibition at 50 µM in the series with H9c2 cells (50 μM) is -1.2 ± 7.6%. Besides, the inhibition at 100 µM in the series on H9c2 cells (100 μM) is 7.2 ± 4.2%. Besides, in the series on OGD/R-induced H9c2 cells, the “H9c2 cell survival after OGD/R (in words)” value (from here on “H9c2 cell survival”) is on record as “significantly improve H9c2 cell survival rates” and the EC50 turned out to be 10.3 µM. In series [2], this compound came in with a concentration at 0.08 h of 0.69 ± 0.227 ng/mL, a concentration at 0.17 h of 1.65 ± 0.585 ng/mL, a concentration at 0.5 h of 0.454 ± 0.151 ng/mL and a concentration at 1 h of 0.355 ± 0.17 ng/mL. In series [2], this compound had a concentration at 2 h of 0.179 ± 0.041 ng/mL, a concentration at 4 h of 0.231 ± 0.054 ng/mL, a concentration at 8 h of 0.053 ± 0.038 ng/mL and a concentration at 12 h of 0.124 ± 0.092 ng/mL.

In series [1] (setting [4]), `O=c1cc(-c2ccc(O)c(O)c2)oc2cc(O)cc(O)c12` [Luteolin] came in with an area under the curve (AUC) of 10.9 ng·h/mL, an AUC(0-t) of 10.3 ± 0.93 ng·h/mL, a Cmax of 12.8 ± 4.12 ng/mL and a mean residence time MRT of 1.84 ± 0.448 h. Besides, in series [1] (setting [4]), the Tmax was determined as 10.2 min and the half-life is 156 ± 73.3 min. The same compound registered an AUC(0-inf) in series [1] (setting [5]) of 10.9 ± 0.867 ng·h/mL. In addition, the inhibition at 25 µM in the series on H9c2 cells (25 μM) was found to be 12.2 ± 4%. Besides, the inhibition at 50 µM in the series on H9c2 cells (50 μM) was 13.1 ± 7.2%. The inhibition at 100 µM in the series with H9c2 cells (100 μM) came to 18.1 ± 4.2%. In the series on OGD/R-induced H9c2 cells, the “H9c2 cell survival” value is recorded as “significantly improve H9c2 cell survival rates” and a half-maximal effect (EC50) was put at 11.3 µM. In series [2], this compound showed a concentration at 0.08 h of 5.84 ± 1.29 ng/mL, a concentration at 0.17 h of 13.6 ± 4.12 ng/mL, a concentration at 0.5 h of 4.37 ± 1.59 ng/mL and a concentration at 1 h of 2.41 ± 0.697 ng/mL. For the same compound, in series [2], the concentration at 2 h was found to be 0.911 ± 0.249 ng/mL, the concentration at 4 h is 0.251 ± 0.183 ng/mL, the concentration at 8 h worked out at 0.188 ± 0.101 ng/mL and the concentration at 12 h was determined as 0.042 ± 0.044 ng/mL.

Compound `O=c1cc(-c2ccc(O)c(O)c2)oc2cc(O[C@@H]3O[C@H](CO)[C@@H](O)[C@H](O)[C@H]3O)cc(O)c12` [Luteoloside] displayed an Oral relative bioavailability in series [3] of 0.019%. Further, in series [3] (po), the “AUC0→∞” value was determined as 20.86 ng·h/mL and the “Shape” value is “Double peaks”. For the same compound, in series [3] (po, 7 g/kg), the AUC0→t is 12.39 ± 2.708 ng·h/mL, the “AUC0→∞” value is 20.86 ± 6.586 ng·h/mL and the T1/2 was determined as 21.76 ± 16.85 h. Moreover, the Inhibition rate with H9c2 cells (25 μM) is reported as -4.2 ± 4.7%. Moreover, the Inhibition rate in the series on H9c2 cells (50 μM) was determined as 8.1 ± 5.7%. For the same compound, in the series on H9c2 cells (100 μM), the Inhibition rate is 4.1 ± 1.7%. Also, the “H9c2 cell survival” value in the series on OGD/R-induced H9c2 cells is “significantly improve H9c2 cell survival rates”.

As to Salvianolic acid B, the “AUC0→∞” value was found to be 2176 ng·h/mL in series [1] (Table S12, rats, oral QSG) and 2176 ± 842.3 ng·h/mL in series [1] (setting [6]). Moreover, the AUCi in series [1] (exposure (AUC0→∞) of the component in rats after oral QSG, as used for ECI) worked out at 2176. In series [1] (exposure level (AUC0→∞) compared with the dosage of each compound in QSG), this compound yielded an Oral relative bioavailability of 0.013%. Further, the “Absorption efficiency / bioavailability (in words)” value in series [1] (from Table S12, rats, oral QSG) is “much lower than most compounds”. The compound further registered an AUC0→t in series [1] (setting [6]) of 1475 ± 187.4 ng·h/mL. The compound further showed a Cmax in series [1] (setting [6]) of 205.3 ± 65.50 ng/mL. Besides, the MRT is 11.08 ± 1.809 h in series [1] (setting [6]) and “more than 10 h” in series [1] (rat plasma, single oral 7 g/kg QSG, n = 6, listed as salvianolic acid B). This compound registered a T1/2 in series [1] (setting [6]) of 10.83 ± 5.740 h. Also, the time of peak concentration (Tmax) in series [1] (setting [6]) was 34 ± 10.9 min. Further, in series [1] (rats, oral QSG), the “Shape” value is “Double peaks”. Besides, the “Share of the total exposures (AUC0→∞) of all analytes” value in series [1] (rats, oral QSG, 11 analytes) was found to be 43.48%. The Inhibition rate was -38.9 ± 5.2% in the series on H9c2 cells (25 μM), -17.1 ± 7.2% in the series on H9c2 cells (50 μM) and 0.1 ± 3.2% with H9c2 cells (100 μM). For the same compound, the “Effect on H9c2 cell viability / cytotoxicity (in words)” value in the series with H9c2 cells (CCK-8, compared to the control group) is on record as “significantly enhanced cell viabilities”. Further, the “H9c2 cell survival” value in the series on OGD/R-induced H9c2 cells is “significantly improve H9c2 cell survival rates”. Besides, the Concentration in series [2] (0.08 h) was 68.337 ± 49.223 ng/mL; in series [2] (0.17 h), 115.490 ± 60.235 ng/mL; in series [2] (0.5 h) it was 174.763 ± 84.875 ng/mL; in series [2] (1 h) it was 83.989 ± 21.934 ng/mL; in series [2] (2 h), 47.989 ± 9.996 ng/mL; in series [2] (4 h), 34.225 ± 16.349 ng/mL. Further, the Concentration in series [2] (8 h) worked out at 91.217 ± 8.136 ng/mL; in series [2] (12 h) it was 56.609 ± 10.151 ng/mL.

The values are drawn from publication PMC12567096, “An Efficacy- and In Vivo Exposure-Oriented Integrated Study to Investigate the Effective Components of Qishen Granule” (Pharmaceuticals, 2025).
